Like-named read-outs stand apart in the source and are kept apart here.
Assay: Solubility of the ligand in Shellsol D40 at 23° C.
Type: physicochemical
Method: This condensation product was added to Shellsole® D40 at a temperature of 23° C. The solubility of the ligand was less than 10 g/l.
Comparative Example A was repeated using 2-hydroxy 5-methyl benzaldehyde instead of salicyl aldehyde. Again, the resulting ligand was added to Shellsol® D40 at a temperature of 23° C. The solubilty of the ligand was less than 10 g/l.
(§1) Comparative Example A was repeated using 2-hydroxy 3,5-di tert. butyl benzaldehyde instead of salicyl aldehyde. Obtained was a ligand according to formula I having two tert. butyl substitutions on the two aromatic groups A1 and A2. The solubility in Shellsol® D40 at a temperature of 23° C. was higher than 20 g/l.
as §1, with “repeated again, now” for “repeated”, “5-dodecyl” for “3,5-di tert. butyl”, “a dodecyl substitution” for “two tert. butyl substitutions”, “100” for “20”

[1] = Shellsol D40 (aromate-free organic solvent), 23° C.

solubility of the ligand in Shellsol D40 | SMILES | solubility of the ligand in Shellsol D40 [1]
 | Cc1ccc(O)c(C=NC2CCCCC2N=Cc2cc(C)ccc2O)c1 (stereo not shown) [B] | less than 10 g/l
less than 10 g/l | Oc1ccccc1C=NC1CCCCC1N=Cc1ccccc1O (stereo not shown) [Comparative Example A, N,N′-bis(salicylidene) cyclohexylene diamine] | 
 | CC(C)(C)c1cc(C=NC2CCCCC2N=Cc2cc(C(C)(C)C)cc(C(C)(C)C)c2O)c(O)c(C(C)(C)C)c1 (stereo not shown) [Example 1] | higher than 20 g/l
 | CCCCCCCCCCCCc1ccc(O)c(C=NC2CCCCC2N=Cc2cc(CCCCCCCCCCCC)ccc2O)c1 (stereo not shown) [Example 2] | higher than 100 g/l
